Calls of active or inactive are those of the source. The rule behind the calls is not given here.
Assays:
DLD-1 [1] = assay: Cytotoxicity against human DLD-1 cells assessed as cell survival measured at 2 uM after 72 hrs by MTS assay relative to control; assay type: functional; conditions: read-out: Activity
MDA-MB-231 [2] = assay: Cytotoxicity against human MDA-MB-231 cells assessed as cell survival measured at 2 uM after 72 hrs by MTS assay relative to control; assay type: functional; conditions: read-out: Activity
MCF7 = assay: Cytotoxicity against human MCF7 cells assessed as cell survival measured at 2 uM after 72 hrs by MTS assay relative to control; assay type: functional; conditions: read-out: Activity
HCT-116 [3] = assay: Cytotoxicity against human HCT-116 cells assessed as cell survival measured at 2 uM after 72 hrs by MTS assay relative to control; assay type: functional; conditions: read-out: Activity
U-87 MG = assay: Cytotoxicity against human U-87 MG cells assessed as cell survival measured at 2 uM after 72 hrs by MTS assay relative to control; assay type: functional, U-87MG ATCC; conditions: read-out: Activity
SW480 = assay: Cytotoxicity against human SW480 cells assessed as cell survival measured at 2 uM after 72 hrs by MTS assay relative to control; assay type: functional; conditions: read-out: Activity
MDA-MB-231 [4] = assay: Cytotoxicity against human MDA-MB-231 cells assessed as growth inhibition after 72 hrs by MTS assay; assay type: functional, cell-based; conditions: MDA-MB-231, 72 h
DLD-1 [5] = assay: Cytotoxicity against human DLD1 cells assessed as growth inhibition after 72 hrs by MTS assay; assay type: functional, cell-based; conditions: DLD-1, 72 h
HCT-116 [6] = assay: Induction of DNA damaging in human HCT-116 cells assessed as CHK1 phosphorylation at S345 at 2 uM measured upto 8 hrs by Western blot analysis; assay type: functional, cell-based
[7] = Cytotoxicity against human M10 cells assessed as growth inhibition after 72 hrs by MTS assay; assay type: toxicity, cell-based
HCT-116 [8] = assay: Effect on cell cycle progression in thymidine synchronized human HCT-116 cells assessed as prevention of cells entering from mitosis in presence of colchicine at 2 uM by Western blot analysis; assay type: functional, cell-based
HCT-116 [9] = assay: Induction of DNA damaging in human HCT-116 cells assessed as RPA2 phosphorylation at S4/S8 at 2 uM measured upto 8 hrs by Western blot analysis; assay type: functional, cell-based
HCT-116 [10] = assay: Induction of apoptosis in human HCT-116 cells assessed as increase in caspase 8 at 1 uM measured after 72 hrs by flow cytometry; assay type: functional, cell-based
HCT-116 [11] = assay: Induction of apoptosis in human HCT-116 cells assessed as increase in caspase 9 at 1 uM measured after 72 hrs by flow cytometry; assay type: functional, cell-based
HCT-116 [12] = assay: Induction of apoptosis in human HCT-116 cells assessed as reduction in number of cells at S phase at 1 uM measured after 72 hrs by flow cytometry; assay type: functional, cell-based
[13] = Cytotoxicity against human CCD-841CoN cells assessed as growth inhibition after 72 hrs by MTS assay; assay type: toxicity, cell-based
HCT-116 [14] = assay: Induction of apoptosis in human HCT-116 cells assessed as decrease in MCL1 expression at 1 uM measured after 72 hrs by flow cytometry; assay type: functional, cell-based
HCT-116 [15] = assay: Induction of cell cycle arrest in human HCT-116 cells assessed as cells accumulation at S to G2 phase (T6-T8) at 2 uM measured upto 24 hrs by flow cytometry; assay type: functional, cell-based
HCT-116 [16] = assay: Induction of apoptosis in human HCT-116 cells assessed as increase in caspase 3 at 1 uM measured after 72 hrs by flow cytometry; assay type: functional, cell-based
DLD-1 [17] = assay: Induction of cell cycle arrest in human DLD-1 cells assessed as reduced progression of S phase (T8) at 2 uM measured upto 24 hrs by flow cytometry; assay type: functional, cell-based
HCT-116 [18] = assay: Effect on cell cycle progression in thymidine synchronized human HCT-116 cells assessed as suppression of CDK1 dephosphorylation in presence of colchicine at 2 uM by Western blot analysis; assay type: functional, cell-based
HCT-116 [19] = assay: Induction of apoptosis in human HCT-116 cells assessed as reduction in number of cells at G2/M phase at 1 uM measured after 72 hrs by flow cytometry; assay type: functional, cell-based
HCT-116 [20] = assay: Induction of DNA damaging in human HCT-116 cells assessed as CHK2 phosphorylation at T68 at 2 uM measured upto 8 hrs by Western blot analysis; assay type: functional, cell-based
HCT-116 [21] = assay: Induction of DNA damaging in human HCT-116 cells assessed as CDK1Y15 dephosphorylation at 2 uM measured upto 8 hrs by Western blot analysis; assay type: functional, cell-based
HCT-116 [22] = assay: Induction of apoptosis in human HCT-116 cells assessed as reduction in number of cells at G1 phase at 1 uM measured after 72 hrs by flow cytometry; assay type: functional, cell-based
HCT-116 [23] = assay: Induction of apoptosis in human HCT-116 cells assessed as increase in number of cells at sub-G1 phase measured after 72 hrs by flow cytometry; assay type: functional, cell-based; conditions: dose 1-4 µM
HCT-116 [24] = assay: Induction of cell cycle arrest in human HCT-116 cells assessed as cells accumulation at G2/M phase (T10-T24) at 2 uM measured upto 24 hrs by flow cytometry; assay type: functional, cell-based
[25] = Cytotoxicity against human HEL 299 cells assessed as growth inhibition after 72 hrs by MTS assay; assay type: toxicity, cell-based
HCT-116 [26] = assay: Suppression of histone H4 methylation at K20 (H4K20me1) in thymidine synchronized human HCT-116 cells at 2 uM measured upto 8 hrs by Western blot analysis; assay type: functional, cell-based
HCT-116 [27] = assay: Induction of DNA damaging in human HCT-116 cells assessed as H4K20 methylation at 2 uM measured upto 8 hrs by Western blot analysis; assay type: functional, cell-based
HCT-116 [28] = assay: Induction of DNA damaging in human HCT-116 cells assessed as KAP-1 phosphorylation at S824 at 2 uM measured upto 8 hrs by Western blot analysis; assay type: functional, cell-based
HCT-116 [29] = assay: Induction of DNA damaging in human HCT-116 cells assessed as RPA2 phosphorylation at S33 at 2 uM measured upto 8 hrs by Western blot analysis; assay type: functional, cell-based
[30] = Cytotoxicity against human MRC5 cells assessed as growth inhibition after 72 hrs by MTS assay; assay type: toxicity, cell-based
DLD-1 [31] = assay: Induction of cell cycle arrest in human DLD-1 cells assessed as reduced progression of G2/M phase (T12) at 2 uM measured upto 24 hrs by flow cytometry; assay type: functional, cell-based
HCT-116 [32] = assay: Effect on cell cycle progression in thymidine synchronized human HCT-116 cells assessed as increase in MPM2 phosphorylation in presence of 0.2 uM of colchicine at 2 uM by Western blot analysis; assay type: functional, cell-based
HCT-116 [33] = assay: Effect on cell cycle progression in thymidine synchronized human HCT-116 cells assessed as increase in histone H3 phosphorylation in presence of 0.2 uM of colchicine at 2 uM by Western blot analysis; assay type: functional, cell-based
HCT-116 [34] = assay: Reduction in mitotic exit in human HCT-116 cells at 2 uM measured upto 24 hrs by flow cytometry; assay type: functional, cell-based
HCT-116 [35] = assay: Effect on cell cycle progression in thymidine synchronized human HCT-116 cells assessed as increase in cyclin B1 phosphorylation in presence of 0.2 uM of colchicine at 2 uM by Western blot analysis; assay type: functional, cell-based

O=C1C(Cl)=C(NCCCCCN2CCOCC2)C(=O)c2ncccc21
viability at 2 µM (DLD-1 [1]): 78.9%
viability at 2 µM (MDA-MB-231 [2]): 85.9%
viability at 2 µM (MCF7): 84.7%
viability at 2 µM (HCT-116 [3]): 59.7%
viability at 2 µM (U-87 MG): 79.6%
viability at 2 µM (SW480): 98.1%

O=C1C(Cl)=C(NCCN2CCOCC2)C(=O)c2cc(Br)ccc21
viability at 2 µM (DLD-1 [1]): 10.3%
viability at 2 µM (MDA-MB-231 [2]): 80.3%
viability at 2 µM (MCF7): 105%
viability at 2 µM (HCT-116 [3]): 86.8%
viability at 2 µM (U-87 MG): 86.8%
viability at 2 µM (SW480): 99.7%

O=C1C(NCCCCN2CCOCC2)=C(Cl)C(=O)c2ncccc21
viability at 2 µM (DLD-1 [1]): 42.2%
viability at 2 µM (MDA-MB-231 [2]): 81.8%
viability at 2 µM (MCF7): 92.8%
viability at 2 µM (HCT-116 [3]): 4.18%
IC50 (MDA-MB-231 [4]): 680 nM
viability at 2 µM (U-87 MG): 105%
IC50 (DLD-1 [5]): 1700 nM

O=C1C(NCCN2CCOCC2)=C(Cl)C(=O)c2ncccc21
viability at 2 µM (DLD-1 [1]): 1.86%
Activity (HCT-116 [6]): Active
IC50 at 72 h [7]: > 2000 nM
Activity (HCT-116 [8]): Active
Activity (HCT-116 [9]): Active
viability at 2 µM (MDA-MB-231 [2]): 93.2%
Activity (HCT-116 [10]): Active
viability at 2 µM (MCF7): 36.3%
viability at 2 µM (HCT-116 [3]): 0.85%
Activity (HCT-116 [11]): Active
Activity (HCT-116 [12]): Active
IC50 at 72 h [13]: > 2000 nM
Activity (HCT-116 [14]): Active
Activity (HCT-116 [15]): Active
Activity (HCT-116 [16]): Active
IC50 (MDA-MB-231 [4]): 440 nM
Activity (DLD-1 [17]): Active
Activity (HCT-116 [18]): Active
Activity (HCT-116 [19]): Active
Activity (HCT-116 [20]): Active
viability at 2 µM (U-87 MG): 28%
Activity (HCT-116 [21]): Active
Activity (HCT-116 [22]): Active
viability at 2 µM (SW480): 16.7%
IC50 (DLD-1 [5]): 590 nM
Activity (HCT-116 [23]): Dose-Dependent Effect
Activity (HCT-116 [24]): Active
IC50 at 72 h [25]: > 2000 nM
Activity (HCT-116 [26]): Active
Activity (HCT-116 [27]): Active
Activity (HCT-116 [28]): Active
Activity (HCT-116 [29]): Active
IC50 at 72 h [30]: > 2000 nM

O=C1C(Cl)=C(NCCN2CCOCC2)C(=O)c2ncccc21
viability at 2 µM (DLD-1 [1]): 82%
Activity (HCT-116 [8]): Active
viability at 2 µM (MDA-MB-231 [2]): 94.4%
Activity (DLD-1 [31]): Active
viability at 2 µM (MCF7): 79.6%
Activity (HCT-116 [32]): Active
viability at 2 µM (HCT-116 [3]): 61.8%
Activity (HCT-116 [12]): inactive
Activity (HCT-116 [33]): Active
Activity (HCT-116 [34]): Active
IC50 (MDA-MB-231 [4]): > 2000 nM
Activity (DLD-1 [17]): Active
Activity (HCT-116 [35]): Active
Activity (HCT-116 [19]): inactive
viability at 2 µM (U-87 MG): 82%
Activity (HCT-116 [22]): inactive
viability at 2 µM (SW480): 93.9%
IC50 (DLD-1 [5]): > 2000 nM

O=C1C(Cl)=C(NCCN2CCOCC2)C(=O)c2cnccc21
viability at 2 µM (DLD-1 [1]): 75.1%
viability at 2 µM (MDA-MB-231 [2]): 85.2%
viability at 2 µM (MCF7): 16.4%
viability at 2 µM (HCT-116 [3]): 65.1%
viability at 2 µM (U-87 MG): 89.3%
viability at 2 µM (SW480): 100%

O=C1C(Cl)=C(NCCN2CCOCC2)C(=O)c2ccc(Cl)cc21
viability at 2 µM (DLD-1 [1]): 91.5%
viability at 2 µM (MDA-MB-231 [2]): 95.9%
viability at 2 µM (MCF7): 101%
viability at 2 µM (HCT-116 [3]): 93%
viability at 2 µM (U-87 MG): 103%
viability at 2 µM (SW480): 106%

O=C1C(Cl)=C(NCCN2CCOCC2)C(=O)c2cc(I)ccc21
viability at 2 µM (DLD-1 [1]): 1.7%
viability at 2 µM (MDA-MB-231 [2]): 81.1%
viability at 2 µM (MCF7): 102%
viability at 2 µM (HCT-116 [3]): 82.4%
viability at 2 µM (U-87 MG): 59.3%
viability at 2 µM (SW480): 84.3%

O=C1C(NCCCCCN2CCOCC2)=C(Cl)C(=O)c2ncccc21
viability at 2 µM (DLD-1 [1]): 30.5%
viability at 2 µM (MDA-MB-231 [2]): 83.4%
viability at 2 µM (MCF7): 73.9%
viability at 2 µM (HCT-116 [3]): 13.7%
IC50 (MDA-MB-231 [4]): 1190 nM
viability at 2 µM (U-87 MG): 49.8%
viability at 2 µM (SW480): 31%
IC50 (DLD-1 [5]): 1940 nM

O=C1C(NCCCN2CCOCC2)=C(Cl)C(=O)c2ncccc21
viability at 2 µM (DLD-1 [1]): 34.1%
viability at 2 µM (MDA-MB-231 [2]): 90.4%
viability at 2 µM (MCF7): 70.8%
viability at 2 µM (HCT-116 [3]): 2.43%
IC50 (MDA-MB-231 [4]): 1140 nM
viability at 2 µM (U-87 MG): 51.6%
viability at 2 µM (SW480): 51.6%
IC50 (DLD-1 [5]): 1940 nM

O=C1C(Cl)=C(NCCN2CCOCC2)C(=O)c2ccc(Br)cc21
viability at 2 µM (DLD-1 [1]): 75.6%
viability at 2 µM (MDA-MB-231 [2]): 85.4%
viability at 2 µM (MCF7): 100%
viability at 2 µM (HCT-116 [3]): 89.3%
viability at 2 µM (U-87 MG): 91.6%
viability at 2 µM (SW480): 105%

— ChEMBL document CHEMBL5620384, “6-Regioisomeric 5,8-quinolinediones as potent CDC25 inhibitors against colorectal cancers” (Eur J Med Chem, 2023)
